Measurements reported in patent publication US20120095185A1, “PROCESS FOR CHELATING COPPER IONS USING CB-TE2A BIFUNCTIONAL CHELATE” (NORDION (CANADA) INC., priority 2010, published 2012).

Legend:
[1] = Conversion of isomer F1 (12b) to F2 (12a) in chloroform, followed by 13C-NMR; type: physicochemical; conditions: 14 days at room temperature
Text: FIG. 7A illustrates the aliphatic region of the ^13C-NMR spectrum of the F1 isomer (12b) in CDCl3 (bottom) and the aliphatic region of the ^13C-NMR spectrum of the F2 isomer (12a) in CDCl3 (top). FIG. 7B illustrates the aliphatic region of the ^13C-NMR spectra of the F1 isomer (12b) in CDCl3 at 0 days, 2 days, 6 days, 9 days and 14 days, showing that the F1 isomer (12b) slowly converts to the F2 isomer (12a).
After 14 days at room temperature, the conversion 12b (F1) to 12a (F2) was approximately 50% complete.

[2] = Optimisation of Cu-64 radiolabeling of 13a and 13b to >95% radiochemical yield; conditions: depends on CB-TE2A BFC concentration
Text: As used herein, the terms “degree of complexation” and “percent complexation” are used interchangeably and are defined to mean the percentage of the ion that is successfully complexed with the bifunctional chelate. Here percent complexation is expressed as radiochemical yield, which is the yield of radiolabeled complex expressed as a fraction of the radioactivity originally present. The value of radiochemical yield obtained when making the ion complexes of the present reaction can be greater than 90% or greater than 95%, as measured by reverse phase chromatography (HPLC).
The conditions required to radiolabel 13a and 13b with Cu-64 in >95% radiochemical yield were optimized for pH, temperature and reaction time (Table 1). The exact same radioisotope lot, buffer solutions, and conditions were used for the reaction and the analysis of both 13a and 13b.
Cu-64 radiolabeled 13a and 13b are distinct species with different retention times by HPLC. The analysis was conducted with a Phenomenex hydrosynergy RPC18 column (4.6×150 mm) using a gradient of 98% trifluoracetic acid in water (0.01% v/v) 2% acetonitrile to 50% trifluoracetic acid in water (0.01% v/v) 50% acetonitrile over 30 min at 1 mL/min.

Row | Structure (SMILES) | Conversion 12b (F1) to 12a (F2) [1] | Reaction time [2]
1 | CCOC(=O)CN1CCCN2CCN(CCCN(C(CCc3ccc([N+](=O)[O-])cc3)C(=O)OC)CC2)CC1 (stereo not drawn) [12b, methyl 2-(11-(2-ethoxy-2-oxoethyl)-1,4,8,11-tetraazabicyclo[6.6.2]hexadecan-4-yl)-4-(4-nitrophenyl)butanoate] | approximately 50% | 
2 | O=C(O)CN1CCCN2CCN(CCCN(C(CCc3ccc([N+](=O)[O-])cc3)C(=O)O)CC2)CC1 (stereo not drawn) [13a] |  | 10-30 minutes depending on
3 | O=C(O)CN1CCCN2CCN(CCCN(C(CCc3ccc([N+](=O)[O-])cc3)C(=O)O)CC2)CC1 (stereo not drawn) [13b] |  | 60 min
